These results are taken from patent US12336981B2, “Compounds and compositions for the inhibition of NAMPT” (Valo Health, Inc., priority 2010, dated 2025).

As usually defined, the IC50 is the concentration at which inhibition is half-maximal.

For one assay, the target named is T1, NAMPT (Homo sapiens, UniProt P43490).
T1 construct: His tag; host or cells: E. coli
Kind of assay: Biochemical inhibition assay: NAMPT enzymatic reaction, NMN quantified by mass spectrometry. The conditions noted are these: read-out: Biochem IC50. An outline of the steps: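 Inhibition of E. coli-expressed His-tagged human NAMPT, measured as NMN formation by mass spectrometry after a 30 min room-temperature reaction containing 1 μM NAM, 100 μM PRPP and 2.5 mM ATP.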

The subject of a further assay is A2780 cells. Kind of assay: In-vitro cell proliferation assay (SRB), A2780 cells. The conditions noted are these: Homo sapiens, A2780, 72 h, A2780 cells, 72 hours, read-out: A2780 IC50. Format: cell-based. In short, it runs like this:
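SRB read-out: 6% TCA fix 1 h at 4° C., stain, Tris solubilize, A570. Media-only background subtracted; % inhibition from two compound concentrations.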

Structures are written as SMILES. Read-outs that look alike come from different tables or passages of the source.

T1 sequence (P43490 whole entry): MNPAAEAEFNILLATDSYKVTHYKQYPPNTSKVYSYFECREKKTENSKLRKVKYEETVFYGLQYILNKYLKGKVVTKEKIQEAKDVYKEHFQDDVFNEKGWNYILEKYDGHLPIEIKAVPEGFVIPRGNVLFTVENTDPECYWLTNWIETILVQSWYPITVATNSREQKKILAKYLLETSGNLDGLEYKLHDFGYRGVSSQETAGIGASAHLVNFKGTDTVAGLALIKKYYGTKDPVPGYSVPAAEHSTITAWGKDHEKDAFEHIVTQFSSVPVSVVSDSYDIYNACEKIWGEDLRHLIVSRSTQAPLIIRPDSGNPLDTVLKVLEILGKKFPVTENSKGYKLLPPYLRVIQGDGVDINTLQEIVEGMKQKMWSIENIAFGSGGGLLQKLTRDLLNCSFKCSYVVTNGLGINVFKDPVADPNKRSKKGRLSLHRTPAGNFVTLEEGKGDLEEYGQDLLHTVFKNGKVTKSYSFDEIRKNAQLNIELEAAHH

As for `O=C(NCc1ccc(S(=O)(=O)c2ccccc2OC(F)(F)F)cc1)c1cc2ccncc2s1` [N-[(4-{[2-(trifluoromethoxy)benzene]sulfonyl}phenyl)methyl]thieno[2,3-c]pyridine-2-carboxamide], the IC50 on NAMPT (NAMPT enzymatic reaction) was found to be 4 nM; in the assay on A2780 cells (SRB assay) it was 2.8 nM.

On to `O=C(NCc1ccc(S(=O)(=O)c2ccccc2C(F)(F)F)cc1)c1cc2cnccc2[nH]1` [N-[(4-{[2-(trifluoromethyl)benzene]sulfonyl}phenyl)methyl]-1H-pyrrolo[3,2-c]pyridine-2-carboxamide], for which the IC50 on NAMPT (NAMPT enzymatic reaction) was determined as 22 nM; with A2780 cells (SRB assay) it was 25 nM.

In the case of `O=C(NCc1ccc(S(=O)(=O)c2ccccc2C(F)(F)F)cc1)c1ccc2nccn2c1` [N-[(4-{[2-(trifluoromethyl)benzene]sulfonyl}phenyl)methyl]imidazo[1,2-a]pyridine-6-carboxamide], the concentration for half-maximal inhibition (IC50) at NAMPT (NAMPT enzymatic assay) was 34.1 nM; in the assay with A2780 cells (SRB), 57.9 nM.

Consider `O=C(NCc1ccc(S(=O)(=O)c2ccccc2C(F)(F)F)cc1)c1cc2ccncc2s1` [N-[(4-{[2-(trifluoromethyl)benzene]sulfonyl}phenyl)methyl]thieno[2,3-c]pyridine-2-carboxamide], for which the figures for the IC50 at NAMPT (NAMPT enzymatic reaction) and in the assay with A2780 cells (SRB assay) were 13 nM and 26 nM, respectively.

Take `O=C(NCc1ccc(S(=O)(=O)c2cccc(C(F)(F)F)c2Cl)cc1)c1cnc2[nH]ncc2c1` [N-[(4-{[2-chloro-3-(trifluoromethyl)benzene]sulfonyl}phenyl)methyl]-1H-pyrazolo[3,4-b]pyridine-5-carboxamide]: the IC50 at NAMPT (NAMPT enzymatic assay) was 36.5 nM; in the assay with A2780 cells (SRB) it was 38.4 nM.

Take `O=C(NCc1ccc(S(=O)(=O)c2ccc(C(F)(F)F)cc2Cl)cc1)c1cnc2[nH]ncc2c1` [N-[(4-{[2-chloro-4-(trifluoromethyl)benzene]sulfonyl}phenyl)methyl]-1H-pyrazolo[3,4-b]pyridine-5-carboxamide]: the 50% inhibitory concentration (IC50) on NAMPT (NAMPT enzymatic assay) is 114 nM; with A2780 cells (SRB), 86.9 nM.

In the case of `O=C(NCc1ccc(S(=O)(=O)c2cc(OC(F)(F)F)ccc2Cl)cc1)c1cc2cnccc2[nH]1` [N-[(4-{[2-chloro-5-(trifluoromethoxy)benzene]sulfonyl}phenyl)methyl]-1H-pyrrolo[3,2-c]pyridine-2-carboxamide], the half-maximal inhibitory concentration (IC50) on NAMPT (NAMPT enzymatic assay) worked out at 53.1 nM; with A2780 cells (SRB), 12 nM.

With `CC(C)Oc1cccc(S(=O)(=O)c2ccc(CNC(=O)c3cnc4nccn4c3)cc2)c1F` [N-[(4-{[2-fluoro-3-(propan-2-yloxy)benzene]sulfonyl}phenyl)methyl]imidazo[1,2-a]pyrimidine-6-carboxamide], the IC50 is 1.8 nM at NAMPT (NAMPT enzymatic assay) and 7 nM in the assay with A2780 cells (SRB).

Consider `O=C(NCc1ccc(S(=O)(=O)c2ccc(-n3cccn3)cc2F)cc1)c1ccc2nccn2c1` [N-[(4-{[2-fluoro-4-(1H-pyrazol-1-yl)benzene]sulfonyl}phenyl)methyl]imidazo[1,2-a]pyridine-6-carboxamide], for which the IC50 was determined as 8.44 nM on NAMPT (NAMPT enzymatic assay) and 12.8 nM in the assay with A2780 cells (SRB).

Consider `O=C(NCc1ccc(S(=O)(=O)c2ccc(-n3cccn3)cc2F)cc1)c1cc2ccncc2s1` [N-[(4-{[2-fluoro-4-(1H-pyrazol-1-yl)benzene]sulfonyl}phenyl)methyl]thieno[2,3-c]pyridine-2-carboxamide], for which the 50% inhibitory concentration (IC50) amounted to 6 nM on NAMPT (NAMPT enzymatic reaction) and 8 nM in the assay on A2780 cells (SRB assay).

Regarding `O=C(NCc1ccc(S(=O)(=O)c2ccc(C(F)(F)F)cc2F)cc1)c1cc2cnccc2[nH]1` [N-[(4-{[2-fluoro-4-(trifluoromethyl)benzene]sulfonyl}phenyl)methyl]-1H-pyrrolo[3,2-c]pyridine-2-carboxamide], the IC50 at NAMPT (NAMPT enzymatic assay) stood at 80.2 nM; in the assay with A2780 cells (SRB) it was 28.1 nM.

As to `COc1cc(-n2cccn2)ccc1S(=O)(=O)c1ccc(CNC(=O)c2ccc3nccn3c2)cc1` [N-[(4-{[2-methoxy-4-(1H-pyrazol-1-yl)benzene]sulfonyl}phenyl)methyl]imidazo[1,2-a]pyridine-6-carboxamide], the half-inhibitory concentration (IC50) at NAMPT (NAMPT enzymatic assay) is 21 nM; in the assay with A2780 cells (SRB), 3.59 nM.

Take `COc1cc(-n2cccn2)ccc1S(=O)(=O)c1ccc(CNC(=O)c2cc3ccncc3s2)cc1` [N-[(4-{[2-methoxy-4-(1H-pyrazol-1-yl)benzene]sulfonyl}phenyl)methyl]thieno[2,3-c]pyridine-2-carboxamide]: the values for the 50% inhibitory concentration (IC50) on NAMPT (NAMPT enzymatic reaction) and with A2780 cells (SRB assay) were 5 nM and 2.6 nM, respectively.

Turning to `COc1cc(C(F)(F)F)ccc1S(=O)(=O)c1ccc(CNC(=O)c2cc3cnccc3[nH]2)cc1` [N-[(4-{[2-methoxy-4-(trifluoromethyl)benzene]sulfonyl}phenyl)methyl]-1H-pyrrolo[3,2-c]pyridine-2-carboxamide], the figures for the IC50 on NAMPT (NAMPT enzymatic reaction) and in the assay with A2780 cells (SRB assay) were 22 nM and 5 nM, respectively.

As to `COc1cc(C(F)(F)F)ccc1S(=O)(=O)c1ccc(CNC(=O)c2ccc3nccn3c2)cc1` [N-[(4-{[2-methoxy-4-(trifluoromethyl)benzene]sulfonyl}phenyl)methyl]imidazo[1,2-a]pyridine-6-carboxamide], the IC50 on NAMPT (NAMPT enzymatic assay) is 26.4 nM; in the assay with A2780 cells (SRB), 9.84 nM.

On to `COc1cc(C(F)(F)F)ccc1S(=O)(=O)c1ccc(CNC(=O)c2cc3ccncc3s2)cc1` [N-[(4-{[2-methoxy-4-(trifluoromethyl)benzene]sulfonyl}phenyl)methyl]thieno[2,3-c]pyridine-2-carboxamide], for which the 50% inhibitory concentration (IC50) at NAMPT (NAMPT enzymatic assay) stood at 10 nM; on NAMPT (NAMPT enzymatic reaction) it was 9 nM; in the assay with A2780 cells (SRB assay), 7.5 nM; in the assay with A2780 cells (SRB), 2.2 nM.

In the case of `COc1ccc(C(C)C)cc1S(=O)(=O)c1ccc(CNC(=O)c2cnc3[nH]ncc3c2)cc1` [N-[(4-{[2-methoxy-5-(propan-2-yl)benzene]sulfonyl}phenyl)methyl]-1H-pyrazolo[3,4-b]pyridine-5-carboxamide], the IC50 came out at 89.2 nM on NAMPT (NAMPT enzymatic assay) and 29.4 nM in the assay on A2780 cells (SRB).

As for `COc1ccc(C(C)C)cc1S(=O)(=O)c1ccc(CNC(=O)c2cc3cnccc3[nH]2)cc1` [N-[(4-{[2-methoxy-5-(propan-2-yl)benzene]sulfonyl}phenyl)methyl]-1H-pyrrolo[3,2-c]pyridine-2-carboxamide], the figures for the IC50 at NAMPT (NAMPT enzymatic reaction) and in the assay on A2780 cells (SRB assay) were 61 nM and 12 nM, respectively.

Regarding `COc1ccc(C(C)C)cc1S(=O)(=O)c1ccc(CNC(=O)c2cc3ccncc3s2)cc1` [N-[(4-{[2-methoxy-5-(propan-2-yl)benzene]sulfonyl}phenyl)methyl]thieno[2,3-c]pyridine-2-carboxamide], the 50% inhibitory concentration (IC50) amounted to 9 nM on NAMPT (NAMPT enzymatic reaction) and 6.2 nM with A2780 cells (SRB assay).

With `COc1ccc(C(F)(F)F)cc1NS(=O)(=O)c1ccc(CNC(=O)c2cc3cnccc3[nH]2)cc1` [N-[(4-{[2-methoxy-5-(trifluoromethyl)phenyl]sulfamoyl}phenyl)methyl]-1H-pyrrolo[3,2-c]pyridine-2-carboxamide], the IC50 on NAMPT (NAMPT enzymatic reaction) is 0.5 nM; in the assay on A2780 cells (SRB assay) it was 1.6 nM.

As to `COc1cccc(OC(C)C)c1S(=O)(=O)c1ccc(CNC(=O)c2cc3cnccc3[nH]2)cc1` [N-[(4-{[2-methoxy-6-(propan-2-yloxy)benzene]sulfonyl}phenyl)methyl]-1H-pyrrolo[3,2-c]pyridine-2-carboxamide], the IC50 on NAMPT (NAMPT enzymatic reaction) was 36 nM; in the assay on A2780 cells (SRB assay) it was 22 nM.

On to `Cc1cc(-n2cccn2)ccc1S(=O)(=O)c1ccc(CNC(=O)c2cc3cnccc3[nH]2)cc1` [N-[(4-{[2-methyl-4-(1H-pyrazol-1-yl)benzene]sulfonyl}phenyl)methyl]-1H-pyrrolo[3,2-c]pyridine-2-carboxamide], for which the concentration for half-maximal inhibition (IC50) at NAMPT (NAMPT enzymatic reaction) and with A2780 cells (SRB assay) was 4 nM each time.

`Cc1cc(-n2cccn2)ccc1S(=O)(=O)c1ccc(CNC(=O)c2ccc3nccn3c2)cc1` [N-[(4-{[2-methyl-4-(1H-pyrazol-1-yl)benzene]sulfonyl}phenyl)methyl]imidazo[1,2-a]pyridine-6-carboxamide]: the IC50 on NAMPT (NAMPT enzymatic assay) turned out to be 7.99 nM; in the assay with A2780 cells (SRB) it was 3.6 nM.

Consider `Cc1cc(C(F)(F)F)ccc1S(=O)(=O)c1ccc(CNC(=O)c2cnc3[nH]ncc3c2)cc1` [N-[(4-{[2-methyl-4-(trifluoromethyl)benzene]sulfonyl}phenyl)methyl]-1H-pyrazolo[3,4-b]pyridine-5-carboxamide], for which the half-maximal inhibitory concentration (IC50) was 100 to 1000 nM on NAMPT (NAMPT enzymatic assay) and 74.6 nM in the assay with A2780 cells (SRB).

Regarding `O=C(NCc1ccc(S(=O)(=O)c2cccc(-n3cccn3)c2)cc1)c1cc2cnccc2[nH]1` [N-[(4-{[3-(1H-pyrazol-1-yl)benzene]sulfonyl}phenyl)methyl]-1H-pyrrolo[3,2-c]pyridine-2-carboxamide], the results for the concentration for half-maximal inhibition (IC50) on NAMPT (NAMPT enzymatic assay) and in the assay with A2780 cells (SRB) were 9.7 nM and 7.4 nM, respectively.

For the molecule `O=C(NCc1ccc(S(=O)(=O)c2cccc(-n3cccn3)c2)cc1)c1cc2ccncc2s1` [N-[(4-{[3-(1H-pyrazol-1-yl)benzene]sulfonyl}phenyl)methyl]thieno[2,3-c]pyridine-2-carboxamide], the IC50 on NAMPT (NAMPT enzymatic assay) was 1.5 nM; in the assay on A2780 cells (SRB), 0.1 nM.

As for `O=C(NCc1ccc(S(=O)(=O)c2cccc(OCC(F)(F)F)c2)cc1)c1cc2ccncc2o1` [N-[(4-{[3-(2,2,2-trifluoroethoxy)benzene]sulfonyl}phenyl)methyl]furo[2,3-c]pyridine-2-carboxamide], the figures for the IC50 at NAMPT (NAMPT enzymatic assay) and in the assay with A2780 cells (SRB) were 7.2 nM and 12 nM, respectively.

Regarding `CC(C)COc1cccc(S(=O)(=O)c2ccc(CNC(=O)c3cc4cnccc4[nH]3)cc2)c1` [N-[(4-{[3-(2-methylpropoxy)benzene]sulfonyl}phenyl)methyl]-1H-pyrrolo[3,2-c]pyridine-2-carboxamide], the IC50 came out at 32.2 nM on NAMPT (NAMPT enzymatic assay) and 14.3 nM in the assay with A2780 cells (SRB).

Take `O=C(NCc1ccc(S(=O)(=O)c2cccc(C(=O)NC3CCCC3)c2)cc1)c1cnc2[nH]ncc2c1` [N-[(4-{[3-(cyclopentylcarbamoyl)benzene]sulfonyl}phenyl)methyl]-1H-pyrazolo[3,4-b]pyridine-5-carboxamide]: the IC50 at NAMPT (NAMPT enzymatic assay) came out at 33.3 nM; with A2780 cells (SRB) it was 33 nM.
